Reference: patent publication US6693215B2, “Process for the preparation of salts of L-carnitine and alkanoyl L-carnitine with mucic acid” (Sigma-Tau Industrie Farmaceutiche Riunite S.p.A., priority 2002, dated 2004)

Assay: Analytical data of the compound obtained: water solubility
Format: physicochemical
Details: product of Example 1, white powder

## CC(=O)OC(CC(=O)O)C[N+](C)(C)C.CC(=O)OC(CC(=O)O)C[N+](C)(C)C.O=C([O-])C(O)C(O)C(O)C(O)C(=O)[O-] [Example 1, acetyl L-carnitine mucate (2:1)]
  Water solubility: Poorly soluble
